Experimental data taken from US7345078B2, “NF-κB inhibitors and uses thereof” (The Board of Trustees of Michigan State University, priority 2002, dated 2008).

What was measured:
Micrococcus luteus = assay: standardized disk diffusion method (zone diameter / MIC); assay type: cell-based; settings: at the amount printed in the same cell
Experimental: (§1) Compounds 4, 6, and 7 were tested for the inhibition of bacteria. A total of 9 bacterial strains were screened. The following Gram-negative and Gram-positive bacteria were included: Staphylococcus aureus, Enterobacter aerogenes, Esherichia coli, Klebsiella pneumonia, Pseudomonas aeruginosa, Serratia marcescens, Bacillus cerius, Bacillus subtillus and micrococcus luteus. Bacterial isolates were removed from storage, streaked on to nutrient agar plates and incubated for 18-24 hours at 35° C. A working bacterial suspension was prepared by suspending 3-5 isolated colonies in 5 mL saline solution. The turbidity of this suspension was carefully adjusted photometrically to equal that of a 0.5 McFarland standard. The zone diameters were determined by a standardized disk diffusion method using cation-supplemented Mueller-Hinton agar according to NCCLS guidelines (National Committee for Clinical Laboratory Standards. Methods for dilution Antimicrobial Susceptibility Tests for Bacteria that Grow Aerobically. Fifth Edition: Approved Standard M7-A5. Wayne, Pa.: NCCLS (2000)). Minimum inhibitory concentrations (MICs) were considered the lowest concentration that gave a clear zone of inhibition. The inoculated agar plates were incubated for 16-20 hours at 35° C. in ambient air. The diameters of the zones were read in millimeters.

Staphylococcus aureus = assay: as above; assay type: cell-based; settings: at the amount printed in the same cell
Experimental: as §1

Bacillus cereus = assay: as above; assay type: cell-based; settings: at the amount printed in the same cell
Experimental: as §1

Bacillus subtillus = assay: as above; assay type: cell-based; settings: at the amount printed in the same cell
Experimental: as §1

NF-κB [1] = molecular target: T1, NF-κB (Homo sapiens, UniProt P19838+Q04206); assay: IC50 values in Mammalian Jurkat cells Leukemia T cells; assay type: cell-based; set-up: endogenous in cells; host or cells: Jurkat leukemia T-cells, clone E6-1 (ATCC), PMA-stimulated; nuclear extract; settings: concentration at which 50% of the protein/enzyme is inhibited in cells
Experimental: (§2) All compounds were evaluated for their potential anti-inflammatory activity by examining the activity of NF-κB in vitro in nuclear extracts using the procedure from Breton and Charbot-Fletcher (Breton et al., J. Pharmacol. Exp. Ther. 282 459-466 (1997)). […] The Jurkat cells (1×10^7 cells/mL) are subsequently treated with various concentrations of imidazoline for 30 minutes at 37° C. followed by PMA stimulation (5.0 ng/mL) for an additional 5 hours. Nuclear extracts are incubated for 20 minutes with a double stranded Cy3 labeled NF-κB consensus oligonucleotide, 5′-[…]-3′ (SEQ ID NO:1) at room temperature. The crude mixture is loaded on a 5% non-denaturing polyacrylamide gel prepared in 1×Tris borate/EDTA buffer and electrophoresed at 200V for 2 hours. After electrophoresis the gel is analyzed using a phosphorimager (Biorad FX PLUS) for detection of the NF-κB-DNA binding.
IC50 values in Mammalian Jurkat cells Leukemia T cells: IC50 value is defined as the concentration of compounds at which 50% of the protein/enzyme is inhibited in cells (Table 3).

RIF-1 murine tumor = assay: RIF-1 murine model of tumor growth delay; assay type: in vivo, mice
Experimental: Tumor cells were injected, bilaterally, into the backs of mice. When tumors reached 100 mm^3, the mice were treated with an intraperitoneal injection of the compound. Tumor volumes were measured 3 times a week until they reached 4 times the size they were on the first treatment day. Data is recorded as “Days to 4×’ or ratio of ‘Days to 4×” of the treated over untreated controls.

NF-κB [2] = molecular target: T1, NF-κB; assay: EMSA of nuclear NF-κB-DNA binding in nuclear extracts of PMA-stimulated Jurkat leukemia T-cells; assay type: cell-based; set-up: endogenous in cells; host or cells: Jurkat leukemia T-cells, clone E6-1 (ATCC), PMA-stimulated; nuclear extract; settings: compound 1.0 μM
Experimental: as §2
EMSA assay for NF-κB-DNA binding was as follows. […] The Jurkat cells (1×10^6 cells/mL) were subsequently treated with various concentrations of the compounds for 30 minutes at 37° C. and 5% CO2 followed by PMA (50 ng/mL) and PHA ([…]) stimulation for an additional 30 minutes. The cells were harvested by centrifugation, washed in ice cold PBS and the nuclear extracts were prepared as previously described (Dignam, et al., Nucl. Acids Res 11: 1475-1489 (1983)). The protein concentration of the extracts was determined according to the Method of Bradford (1976) with BioRad reagents. Nuclear extracts are incubated for 20 minutes at room temperature with a double stranded Cy3 labeled NF-kB consensus oligonucleotide, 5′-[…] CCAGGC-3′ (SEQ ID NO:1). The binding mixture ([…]) contained 10 mM HEPES-NaOH pH 7.9, 4 mM tris-HCl, pH 7.9, 6.0 mM KCl, 1 mM EDTA, 1 mM DTT, 10% glycerol, 0.3 mg/mL bovide serum albumin and […] of poly (dI.dC). The binding mixtures ([…] of nuclear extract protein) were incubated for 20 minutes at room temrperature with 0.16 pmol of Cy3 labeled oligonucleotide. The mixture was loaded on a 4% polyacrylamide gel prepared in 1× tris borate/EDTA buffer and was electrophoresed at 200 V for 20 minutes. After electrophoresis the gel was analyzed using a phosphorimager (Biorad FX plus) for detection of the NF-kB—DNA binding.

T1 sequence (Q04206 whole entry): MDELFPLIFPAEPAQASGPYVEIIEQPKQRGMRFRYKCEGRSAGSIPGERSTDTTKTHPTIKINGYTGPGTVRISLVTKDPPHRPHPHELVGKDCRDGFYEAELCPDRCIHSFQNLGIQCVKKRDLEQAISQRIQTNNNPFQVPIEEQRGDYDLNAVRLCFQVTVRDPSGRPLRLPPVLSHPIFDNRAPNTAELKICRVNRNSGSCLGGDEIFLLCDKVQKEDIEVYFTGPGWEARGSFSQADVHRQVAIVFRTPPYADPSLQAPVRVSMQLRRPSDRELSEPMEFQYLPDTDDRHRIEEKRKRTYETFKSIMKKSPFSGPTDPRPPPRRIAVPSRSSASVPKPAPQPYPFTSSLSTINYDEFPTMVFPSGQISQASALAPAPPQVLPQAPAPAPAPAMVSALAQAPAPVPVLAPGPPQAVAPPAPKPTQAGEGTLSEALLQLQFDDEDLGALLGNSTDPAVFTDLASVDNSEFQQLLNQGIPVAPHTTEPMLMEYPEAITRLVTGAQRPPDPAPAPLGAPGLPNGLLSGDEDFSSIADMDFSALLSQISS
T1 sequence (P19838 1-433 limits assumed): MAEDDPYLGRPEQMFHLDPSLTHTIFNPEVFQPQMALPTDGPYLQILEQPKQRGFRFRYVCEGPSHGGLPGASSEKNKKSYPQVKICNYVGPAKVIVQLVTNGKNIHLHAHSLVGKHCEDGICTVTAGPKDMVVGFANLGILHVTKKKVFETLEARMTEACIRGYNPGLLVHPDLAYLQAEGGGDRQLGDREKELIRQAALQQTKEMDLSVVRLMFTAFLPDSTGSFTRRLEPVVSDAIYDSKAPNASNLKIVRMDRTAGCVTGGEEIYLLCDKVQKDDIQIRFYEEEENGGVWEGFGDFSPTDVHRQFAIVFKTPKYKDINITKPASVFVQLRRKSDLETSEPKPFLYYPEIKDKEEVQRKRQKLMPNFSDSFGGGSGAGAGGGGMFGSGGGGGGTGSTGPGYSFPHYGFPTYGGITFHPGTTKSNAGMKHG

O=C(O)[C@@]1(c2ccccc2)N=C(c2ccccc2)N(Cc2ccccc2)[C@H]1c1ccccc1 (racemic) [Compound 4, Dl-(3S,4S)-1-Benzyl-2,4,5-triphenyl-4,5-dihydro-1H-imidazole-4-carboxylic acid]
zone of inhibition diameter (Micrococcus luteus): 12 mm
zone of inhibition diameter (Staphylococcus aureus): 12 mm
zone of inhibition diameter (Bacillus cereus): 11 mm
zone of inhibition diameter (Bacillus subtillus): 13 mm
IC50 (NF-κB [1]): 73 nM
Days Delay (tumor growth delay) (RIF-1 murine tumor; IP, imidazoline 100 mg/kg, cis-platin 4 mg/kg, camptothecin 6 mg/kg): -0.56 days
Median (days to 4x) (RIF-1 murine tumor; IP, imidazoline 100 mg/kg, cis-platin 4 mg/kg, camptothecin 6 mg/kg, untreated 7.0): 6.5 days
Days to 4x (Ave ±SE) (RIF-1 murine tumor; IP, imidazoline 100 mg/kg, cis-platin 4 mg/kg, camptothecin 6 mg/kg, untreated 7.3 ± 0.6): 6.4 ± 0.2 days
tumors < 4x at Day 22 (RIF-1 murine tumor; cis-platin 4 mg/kg + compound 4 100 mg/kg IP): 4 of the 8
chemopotentiation of camptothecin (RIF-1 murine tumor; combinational treatment with camptothecin (CPT), RIF-1 tumors in mice): No significant chemopotentiation
chemopotentiation of cis-platin (RIF-1 murine tumor; combinational treatment with cis-platin (CDDP), RIF-1 tumors in mice): considerable chemopotentiation
inhibition at 1 µM (NF-κB [2]): 65%
